This assay addresses recombinant human AMPK complex 1 (containing α1β1γ1) (Homo sapiens, UniProt Q13131+Q9Y478). Description: […] (in vitro AMPK activation assay). Format: biochemical. To be noted: for Emax: recombinant human AMPK complex 1 (α1β1γ1), basal activity subtracted, read-out: % Maximum AMP Activation of human AMPK Complex 1. The procedure: Recombinant viruses were generated by cotransfection of AMPK/pBacPak9 clones with Baculogold baculovirus DNA (Pharmingen) in spodoptera frugiperda 21 cells according to the manufacturer's instructions. Each round of virus amplification was performed for 5 days in Grace's medium containing 10% serum. Virus that had been subjected to three rounds of amplification was used for all protein production procedures. To express the AMPK complex, sf21 cells were adapted to serum free medium (SF900 II, Invitrogen) by sequential dilution from serum containing stocks into SF900 II medium and maintained in shaker flasks at 90 rpm at 27° C. The recombinant AMPK enzyme complex was produced by triple infection, one recombinant virus for each of the subunits, in sf21 cells under serum free conditions. […] Cells were harvested by centrifugation at 10,000×g for 15 minutes after 72 hours of infection with viruses. The insect cell pellet from 2 liters of culture was resuspended in 50 ml lysis buffer (20 mM Tris-HCl, 50 mM NaCl, 50 mM NaF, 30 mM Na PPi, 0.25 M sucrose, 10 mM ZnCl2, 2 mM DTT, 0.4 mg/ml digitonin) and subjected to two cycles of freeze-thaw lysis in a dry-ice ethanol bath. Insoluble material was removed by centrifugation at 10,000×g and the supernatant was fractionated with use of polyethylene glycol (PEG).
The total in vitro AMPK activation assay volume is 50 μl in a 96-well plate. […] The reaction was initiated with addition of the enzyme. After 30-minute incubation at 30° C., the reaction was stopped by addition of 80 μl 1% H3PO4. Aliquots (100 μl) were transferred to 96-well MultiScreen plates (MAPHNOB50; Millipore Corp., Bedford, Mass., USA). The plate was washed three times with 1% H3PO4 followed by detection in a Top-count. The counts per minute from the basal activity (the reaction without activator) was subtracted from each well and the data were expressed as % maximum AMP activation followed by EC50 calculation.

Chain of recombinant human AMPK complex 1 (containing α1β1γ1) (Q13131 whole entry): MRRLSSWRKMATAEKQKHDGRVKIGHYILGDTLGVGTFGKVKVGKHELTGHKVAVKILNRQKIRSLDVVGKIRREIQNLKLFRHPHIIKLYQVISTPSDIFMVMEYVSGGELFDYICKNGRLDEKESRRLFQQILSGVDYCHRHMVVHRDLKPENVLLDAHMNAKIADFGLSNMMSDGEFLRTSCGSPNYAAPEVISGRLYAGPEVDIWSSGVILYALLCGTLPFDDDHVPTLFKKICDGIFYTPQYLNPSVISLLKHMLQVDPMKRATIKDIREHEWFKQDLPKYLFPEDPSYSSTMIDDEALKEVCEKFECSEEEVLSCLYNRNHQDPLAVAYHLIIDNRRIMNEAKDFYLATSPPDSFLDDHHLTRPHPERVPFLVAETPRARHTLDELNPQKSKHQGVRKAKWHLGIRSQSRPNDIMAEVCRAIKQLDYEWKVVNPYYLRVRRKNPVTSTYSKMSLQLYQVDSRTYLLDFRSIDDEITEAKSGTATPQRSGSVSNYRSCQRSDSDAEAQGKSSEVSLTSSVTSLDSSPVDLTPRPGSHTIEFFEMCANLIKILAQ
Chain of recombinant human AMPK complex 1 (containing α1β1γ1) (Q9Y478 whole entry): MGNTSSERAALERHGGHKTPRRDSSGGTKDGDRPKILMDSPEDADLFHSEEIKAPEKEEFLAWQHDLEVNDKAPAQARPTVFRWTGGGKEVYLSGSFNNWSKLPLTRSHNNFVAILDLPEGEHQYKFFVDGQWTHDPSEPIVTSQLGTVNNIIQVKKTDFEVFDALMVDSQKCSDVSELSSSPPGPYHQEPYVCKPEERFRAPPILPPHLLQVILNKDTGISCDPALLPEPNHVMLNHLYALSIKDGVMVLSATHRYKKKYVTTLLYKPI
Chain of recombinant human AMPK complex 1 (containing α1β1γ1) (P54619 whole entry partner): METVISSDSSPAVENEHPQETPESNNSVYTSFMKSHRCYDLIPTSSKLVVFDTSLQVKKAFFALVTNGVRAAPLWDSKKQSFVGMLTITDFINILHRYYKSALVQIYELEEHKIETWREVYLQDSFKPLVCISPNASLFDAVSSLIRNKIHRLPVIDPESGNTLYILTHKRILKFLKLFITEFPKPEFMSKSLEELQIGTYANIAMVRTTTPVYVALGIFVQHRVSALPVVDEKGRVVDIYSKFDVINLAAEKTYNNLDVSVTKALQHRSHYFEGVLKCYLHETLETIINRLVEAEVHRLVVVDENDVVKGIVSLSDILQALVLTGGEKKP

Take `Cc1ccc(Oc2nc3cc(-c4ccc(-c5ccccc5)cc4)c(Cl)cc3[nH]2)cc1C(=O)O` [Example 1, 5-[(5-biphenyl-4-yl-6-chloro-1H-benzimidazol-2-yl)oxy]-2-methylbenzoic acid]: the EC50 was 8 nM.

In the case of `NC(=O)Nc1cccc(Oc2nc3cc(-c4ccc(-c5ccccc5)cc4)c(Cl)cc3[nH]2)c1` [Example 2, [3-(5-Biphenyl-4-yl-6-chloro-1H-benzoimidazol-2-yloxy)-phenyl]-urea], the Emax is above 80%.

On to `CC(=O)Nc1cccc(Oc2nc3cc(-c4ccc(-c5ccccc5)cc4)c(Cl)cc3[nH]2)c1` [Example 3, N-[3-(5-Biphenyl-4-yl-6-chloro-1H-benzoimidazol-2-yloxy)-phenyl]-acetamide], for which the Emax was above 80%.

As to `CCOC(=O)c1c(C)[nH]c2ccc(Oc3nc4cc(-c5ccc(-c6ccccc6)cc5)c(Cl)cc4[nH]3)cc12` [Example 4, 5-(5-Biphenyl-4-yl-6-chloro-1H-benzoimidazol-2-yloxy)-2-methyl-1H-indole-3-carboxylic acid ethyl ester], the Emax is above 80%.

For the compound `Cc1[nH]c2ccc(Oc3nc4cc(-c5ccc(-c6ccccc6)cc5)c(Cl)cc4[nH]3)cc2c1C(=O)O` [Example 5, 5-(5-Biphenyl-4-yl-6-chloro-1H-benzoimidazol-2-yloxy)-2-methyl-1H-indole-3-carboxylic acid], the Emax was above 80%.

On to `COC(=O)C1(c2ccc(Oc3nc4cc(-c5ccc(-c6ccccc6)cc5)c(Cl)cc4[nH]3)cc2)CC1` [Example 6, 1-[4-(5-Biphenyl-4-yl-6-chloro-1H-benzoimidazol-2-yloxy)-phenyl]-cyclopropanecarboxylic acid methyl ester], for which the Emax is above 80%.

For the compound `O=C(O)C1(c2ccc(Oc3nc4cc(-c5ccc(-c6ccccc6)cc5)c(Cl)cc4[nH]3)cc2)CC1` [Example 7, 1-[4-(5-Biphenyl-4-yl-6-chloro-1H-benzoimidazol-2-yloxy)-phenyl]-cyclopropanecarboxylic acid], the Emax is above 80%.

In the case of `O=C(O)Cc1ccc(Oc2nc3cc(-c4ccc(-c5ccccc5)cc4)c(Cl)cc3[nH]2)cc1C(=O)O` [Example 8, 5-(5-Biphenyl-4-yl-6-chloro-1H-benzoimidazol-2-yloxy)-2-carboxymethyl-benzoic acid], the Emax is above 80%.

For `CCOC(=O)Cc1ccc(Oc2nc3cc(-c4ccc(-c5ccccc5)cc4)c(Cl)cc3[nH]2)cc1C(=O)OCC` [Example 9, 5-(5-Biphenyl-4-yl-6-chloro-1H-benzoimidazol-2-yloxy)-2-ethoxycarbonylmethyl-benzoic acid ethyl ester], the Emax is above 80%.

Consider `COC(=O)c1ccc(Oc2nc3cc(-c4ccc(-c5ccccc5)cc4)c(Cl)cc3[nH]2)cc1C(=O)OC` [Example 10, 4-(5-Biphenyl-4-yl-6-chloro-1H-benzoimidazol-2-yloxy)-phthalic acid dimethyl ester], for which the Emax is above 80%.

As for `Cc1cc(Oc2nc3cc(-c4ccc(-c5ccccc5)cc4)c(Cl)cc3[nH]2)cc(C(=O)O)c1C` [Example 11, 5-(5-Biphenyl-4-yl-6-chloro-1H-benzoimidazol-2-yloxy)-2,3-dimethyl-benzoic acid], the Emax was above 80%.

Turning to `COC(=O)c1c(C)cc(Oc2nc3cc(-c4ccc(-c5ccccc5)cc4)c(Cl)cc3[nH]2)cc1C(=O)O` [Example 12, 5-(5-Biphenyl-4-yl-6-chloro-1H-benzoimidazol-2-yloxy)-3-methyl-phthalic acid 2-methyl ester], the Emax was above 80%.

As to `COC(=O)c1cc(Oc2nc3cc(-c4ccc(-c5ccccc5)cc4)c(Cl)cc3[nH]2)cc(C)c1C` [Example 14, 5-(5-Biphenyl-4-yl-6-chloro-1H-benzoimidazol-2-yloxy)-2,3-dimethyl-benzoic acid methyl ester], the Emax is above 80%.

Consider `COC(=O)c1cc(Oc2nc3cc(-c4ccc(-c5ccccc5)cc4)c(Cl)cc3[nH]2)cc(C)c1C(=O)OC` [Example 15, 5-(5-Biphenyl-4-yl-6-chloro-1H-benzoimidazol-2-yloxy)-3-methyl-phtalic acid dimethyl ester], for which the Emax was above 80%.

As to `O=C1Cc2cc(Oc3nc4cc(-c5ccc(-c6ccccc6)cc5)c(Cl)cc4[nH]3)ccc2O1` [Example 16, 5-(5-Biphenyl-4-yl-6-chloro-1H-benzoimidazol-2-yloxy)-3H-benzofuran-2-one], the Emax is above 80%.

In the case of `O=C(O)Cc1cc(Oc2nc3cc(-c4ccc(-c5ccccc5)cc4)c(Cl)cc3[nH]2)ccc1O` [Example 17, [5-(5-Biphenyl-4-yl-6-chloro-1H-benzoimidazol-2-yloxy)-2-hydroxy-phenyl]-acetic acid], the Emax is above 80%.

On to `NC(C(=O)O)c1ccc(Oc2nc3cc(-c4ccc(-c5ccccc5)cc4)c(Cl)cc3[nH]2)cc1` (centres unmarked) [Example 18, Amino-[4-(5-biphenyl-4-yl-6-chloro-1H-benzoimidazol-2-yloxy)-phenyl]-acetic acid], for which the Emax was above 80%.

With `O=C(O)C(O)c1cccc(Oc2nc3cc(-c4ccc(-c5ccccc5)cc4)c(Cl)cc3[nH]2)c1` (centres unmarked) [Example 19], the Emax is above 80%.

In the case of `O=C(O)C(O)c1ccc(Oc2nc3cc(-c4ccc(-c5ccccc5)cc4)c(Cl)cc3[nH]2)cc1` (centres unmarked) [Example 20, [4-(5-Biphenyl-4-yl-6-chloro-1H-benzoimidazol-2-yloxy)-phenyl]-hydroxy-acetic acid], the Emax was above 80%.

As to `O=C(O)Cc1cc(O)cc(Oc2nc3cc(-c4ccc(-c5ccccc5)cc4)c(Cl)cc3[nH]2)c1` [Example 21, [3-(5-Biphenyl-4-yl-6-chloro-1H-benzoimidazol-2-yloxy)-5-hydroxy-phenyl]-acetic acid], the Emax is above 80%.

For `O=C(O)Cc1cccc(Oc2nc3cc(C#Cc4ccccc4)c(Cl)cc3[nH]2)c1` [Example 22, [3-(6-Chloro-5-phenylethynyl-1H-benzoimidazol-2-yloxy)-phenyl]-acetic acid], the Emax is above 80%.

Turning to `NC(=O)Cc1cccc(Oc2nc3cc(C#Cc4ccccc4)c(Cl)cc3[nH]2)c1` [Example 23, 2-[3-(6-Chloro-5-phenylethynyl-1H-benzoimidazol-2-yloxy)-phenyl]-acetamide], the Emax is above 80%.

Turning to `O=C(O)CCc1cccc(Oc2nc3cc(C#Cc4ccccc4)c(Cl)cc3[nH]2)c1` [Example 24, 3-[3-(6-Chloro-5-phenylethynyl-1H-benzoimidazol-2-yloxy)-phenyl]-propionic acid], the Emax was above 80%.

As to `O=C(O)CCc1ccc(Oc2nc3cc(-c4ccc(-c5ccccc5)cc4)c(Cl)cc3[nH]2)cc1` [Example 25, 3-[4-(5-Biphenyl-4-yl-6-chloro-1H-benzoimidazol-2-yloxy)-phenyl]-propionic acid], the Emax is above 80%.

In the case of `O=C(O)Cc1ccc(Oc2nc3cc(-c4ccc(-c5ccccc5)cc4)c(Cl)cc3[nH]2)cc1` [Example 26, [4-(5-Biphenyl-4-yl-6-chloro-1H-benzoimidazol-2-yloxy)-phenyl]-acetic acid], the Emax was above 80%.

Regarding `Cc1cc(Oc2nc3cc(-c4ccc(-c5ccccc5)cc4)c(Cl)cc3[nH]2)cc(O)c1C(=O)O` [Example 27, 4-(5-Biphenyl-4-yl-6-chloro-1H-benzoimidazol-2-yloxy)-2-hydroxy-6-mehtyl-benzoic acid], the Emax is above 80%.

Regarding `O=C(O)c1cc(Oc2nc3cc(-c4ccc(-c5ccccc5)cc4)c(Cl)cc3[nH]2)ccc1O` [Example 28, 5-(5-Biphenyl-4-yl-6-chloro-1H-benzoimidazol-2-yloxy)-2-hydroxy-benzoic acid], the Emax is above 80%.

As for `O=C1NC(=O)C(c2ccc(Oc3nc4cc(-c5ccc(-c6ccccc6)cc5)c(Cl)cc4[nH]3)cc2)N1` (centres unmarked) [Example 29, 5-[4-(5-Biphenyl-4-yl-6-chloro-1H-benzoimidazol-2-yloxy)-phenyl]-imidazolidine-2,4-dione], the Emax is above 80%.

`NC(=O)c1ccc(Oc2nc3cc(-c4ccc(-c5ccccc5)cc4)c(Cl)cc3[nH]2)cc1` [Example 30, 4-(5-Biphenyl-4-yl-6-chloro-1H-benzoimidazol-2-yloxy)-benzamide]: the Emax is above 80%.

As to `COC(=O)c1ccc(Oc2nc3cc(-c4ccc(-c5ccccc5)cc4)c(Cl)cc3[nH]2)cc1O` [Example 31, 4-(5-Biphenyl-4-yl-6-chloro-1H-benzoimidazol-2-yloxy)-2-hydroxy-benzoic acid methyl ester], the Emax is above 80%.

Take `O=C(O)c1ccc(Oc2nc3cc(-c4ccc(-c5ccccc5)cc4)c(Cl)cc3[nH]2)cc1O` [Example 32, 4-(5-Biphenyl-4-yl-6-chloro-1H-benzoimidazol-2-yloxy)-2-hydroxy-benzoic acid]: the Emax is above 80%.

Turning to `Clc1cc2[nH]c(Oc3cccc(-c4nn[nH]n4)c3)nc2cc1-c1ccc(-c2ccccc2)cc1` [Example 33, 5-Biphenyl-4-yl-6-chloro-2-[3-(2H-tetrazol-5-yl)-phenoxy]-1H-benzoimidazol], the Emax was above 80%.
